Measurements as given in patent US20100317656A1, “IMIDAZO[1,2-a]PYRIDINE-2-CARBOXAMIDE DERIVATIVES, PREPARATION THEREOF AND APPLICATION THEREOF IN THERAPEUTICS” (SANOFI-AVENTIS, priority 2008, published 2010).

Target: T1, mouse Nurr1 receptor (Mus musculus, UniProt Q06219)
T1 construct: a cell line (N2A) endogenously expressing the mouse Nurr1 receptor; host or cells: Neuro-2A (N2A) mouse neuroblastoma cells stably transfected with 8NBRE-luciferase
Assay: Evaluation of the in vitro activity on N2A cells (NBRE-luciferase reporter)
Assay type: cell-based
Settings: N2A (Neuro-2A) cells endogenously expressing Nurr1, stably transfected with 8NBRE-luciferase; products incubated 24 hours; luminescence
Procedure: The activity of the compounds according to the invention was evaluated on a cell line (N2A) endogenously expressing the mouse Nurr1 receptor and stably transfected with the NOT binding response element (NBRE) coupled to the luciferase reporter gene. The EC50 values are between 0.01 and 1000 nM. The assays were carried out according to the procedure described below.
The Neuro-2A cell line comes from a standard commercial source (ATCC). The Neuro-2A clone was obtained, from a spontaneous tumour originating from an A albino mouse strain, by R. J Klebe et al. This Neuro-2A line is subsequently stably transfected with 8NBRE-luciferase. The N2A-8NBRE cells are cultured until confluence in 75 cm^2 culture flasks containing DMEM supplemented with 10% of foetal calf serum, 4.5 g/l of glucose and 0.4 mg/ml of geneticin. After a week of culture, the cells are recovered with 0.25% trypsin for 30 seconds and then resuspended in DMEM without phenol red, containing 4.5 g/l of glucose and 10% of Hyclone delipidized serum, and deposited into transparent-bottom 96-well white plates. The cells are deposited at a rate of 60 000 per well in 75 μl for 24 hours before the addition of the products. The products are applied in 25 μl and incubated for a further 24 hours. On the day of the measurement, an equivalent volume (100 μl) of Steadylite is added to each well and then left for a period of 30 minutes in order to obtain complete cell lysis and maximum signal production. The plates are subsequently measured in a luminescence counter for microplates after having been sealed with an adhesive film. The products are prepared in the form of a stock solution at 10^−2M and then diluted in 100% of DMSO. Each product concentration is prediluted in culture medium before incubation with the cells, thus containing 0.625% final concentration of DMSO.

T1 sequence (Q06219 whole entry): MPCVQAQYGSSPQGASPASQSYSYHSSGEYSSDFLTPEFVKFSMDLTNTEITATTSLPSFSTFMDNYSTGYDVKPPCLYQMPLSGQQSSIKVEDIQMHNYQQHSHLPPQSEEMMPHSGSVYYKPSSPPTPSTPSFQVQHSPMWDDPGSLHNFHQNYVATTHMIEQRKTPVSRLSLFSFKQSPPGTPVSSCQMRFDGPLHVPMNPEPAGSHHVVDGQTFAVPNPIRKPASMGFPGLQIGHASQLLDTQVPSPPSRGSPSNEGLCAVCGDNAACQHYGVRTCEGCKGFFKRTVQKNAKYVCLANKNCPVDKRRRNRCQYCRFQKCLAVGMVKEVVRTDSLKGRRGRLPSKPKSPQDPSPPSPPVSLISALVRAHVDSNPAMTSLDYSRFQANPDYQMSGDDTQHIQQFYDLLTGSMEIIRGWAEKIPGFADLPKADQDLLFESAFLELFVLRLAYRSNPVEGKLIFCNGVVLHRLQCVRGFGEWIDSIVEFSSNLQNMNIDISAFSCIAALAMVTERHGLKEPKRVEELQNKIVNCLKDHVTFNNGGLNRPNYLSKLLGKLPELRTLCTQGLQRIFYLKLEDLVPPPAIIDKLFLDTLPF

SMILES | EC50 [nM]
O=C(c1cn2cc(-c3nc[nH]n3)ccc2n1)N1CCc2ccccc21 [Compound 35, 2-(2,3-Dihydro-1H-indol-1-ylcarbonyl)-6-(1H-1,2,4-triazol-3-yl)imidazo[1,2-α]pyridine] | 11
O=C(c1cn2cc(-c3cccc(CO)c3)ccc2n1)N1CC=CCC1 [Compound 8, {3-[2-[(1,2,5,6-Tetrahydropyridin-1-yl)carbonyl]imidazo[1,2-α]pyridin-6-yl]phenyl}methanol] | 0.8
O=C(c1cn2cc(-c3ncco3)ccc2n1)N1CC=CCC1 [Compound 30, 6-(Oxazol-2-yl)-2-[(1,2,5,6-tetrahydropyridin-1-yl)carbonyl]imidazo[1,2-α]pyridine] | 56
O=C(c1cn2cc(-c3c[nH]cn3)ccc2n1)N1CCc2ccccc21 [Compound 43, 2-(2,3-Dihydro-1H-indol-1-ylcarbonyl)-6-(1H-imidazol-4-yl)imidazo[1,2-α]pyridine] | 2.4
O=C(c1cn2cc(-c3cccc(CO)c3)ccc2n1)N1CC=CC1 [Compound 7, {3-[2-(2,5-Dihydro-1H-pyrrol-1-ylcarbonyl)imidazo[1,2-α]pyridin-6-yl]phenyl}methanol] | 5
CN(C)c1ccc2nc(C(=O)N3CCc4ccc(F)cc43)cn2c1 [Compound 17, 2-[(6-Fluoro-2,3-dihydro-1H-indol-1-yl)carbonyl]-N,N-dimethylimidazo[1,2-α]pyridin-6-amine] | 6.7
